One assay relates to U87MG tumour cells. As to the kind of experiment: Test of in vitro proliferation of U87MG tumour cells. It is filed as cell-based. The settings on record: Homo sapiens, U-87 MG, 72 h, U87MG cells, 72 hours; read-out: U87 Cell Proliferation IC50. On the procedure:
Model 4: Test of in vitro Proliferation of U87MG Tumour Cells.
The cell growth is determined with the reagent CellTiter 96 AQueous One Solution Cell Proliferation Assay from Promega (Cat. No. G3581).

Assay [1] has as its target mTOR (human recombinant aa mTOR 1360-2549) (Homo sapiens (Human), UniProt P42345). The assay is described as follows: mTOR enzymatic test by TR-FRET (phosphorylation of GFP-4EBP1). Type of assay: biochemical. On the procedure: Model 1: mTOR Enzymatic Test by TR-FRET (Time-resolved Fluorescence Resonance Energy Transfer).
The test detects the phosphorylation of the substrate GFP-4EBP1 using a terbium-labelled antibody that is specific for the phospho-Thr46 epitope. Binding of the Tb-antibody to the phosphorylated GFP peptide allows the transfer of energy from Tb, excited at 340 nm, to GFP with an increase in the fluorescence emission of the GFP at 520 nm. […] The mixture is incubated for 30 minutes at room temperature. 10 μl of solution are taken up and the reaction is quenched by adding 10 μl of Tb-antibody solution (Invitrogen PV4757)/EDTA (2 nM Tb-Ac and 10 mM EDTA final). After 60 minutes at room temperature, the fluorescence at 490 nm, from the Tb emission, and at 520 nm, from the GFP emission, is measured in a BMG PHERAstar reader equipped with a Lanthascreen™ filter (excitation at 340 nm, emission at 490 and 520 nm). The results are given in the form of the 520/490 ratio.

A further assay concerns Akt-pS473 in U87MG cells. Particulars: Homo sapiens, U-87 MG; for IC50: read-out: U87 Akt-pS473 % Inhibition or IC50, nM (IC50), U87MG cells.
The target in the next assay is PI3Kα (p110α/p85α) (Homo sapiens (Human), UniProt P42336). As to the kind of experiment: PI3Kα enzymatic test by measuring the consumption of ATP. It is filed as biochemical. The protocol:
Model 2: PI3Kα Enzymatic Test by Measuring the Consumption of ATP.
The test uses a lucifeurerin/luciferase system to measure the concentration of ATP and its consumption during the enzymatic reaction. The test is performed in 96-well format (Corning/Costar 96 black flat-bottomed half-wells plate, ref. 3694) in a total volume of 30 μl.
To 1 μl of inhibitor in 100% DMSO are added (final concentrations) 50 μM of the substrate PIP2 ((L-α-phosphatidyl-D-myoinositol 4,5-bisphosphate, Echelon 117P-4516-0500), 2 μM of ATP and 1.7 μg/ml of PI3Kα, (p110α/p85α, Invitrogen PV4788) in a buffer of Tris/HCl 50 mM pH 7.5, EGTA 1 mM, MgCl2 10 mM, Chaps 0.03%, 1 mM DTT). After 90 minutes, the reaction is quenched by adding 20 μl/well of KinaseGlo reagent (Promega V6713). After 10 minutes in the dark, the luminescence is read on the PHERAStar microplate reader (reading at 0.8 sec/well).
The IC50 values are determined by the preparation of successive threefold dilutions on at least a scale of 10 000.

These results are taken from patent publication US9120812B2, “Pyrimidooxazocine derivatives as mTOR-inhibitors” (SANOFI, priority 2012, dated 2015).

Broadly, the inhibition is how much of the control response was suppressed.

mTOR (human recombinant aa mTOR 1360-2549), sequence (P42345 1360-2549): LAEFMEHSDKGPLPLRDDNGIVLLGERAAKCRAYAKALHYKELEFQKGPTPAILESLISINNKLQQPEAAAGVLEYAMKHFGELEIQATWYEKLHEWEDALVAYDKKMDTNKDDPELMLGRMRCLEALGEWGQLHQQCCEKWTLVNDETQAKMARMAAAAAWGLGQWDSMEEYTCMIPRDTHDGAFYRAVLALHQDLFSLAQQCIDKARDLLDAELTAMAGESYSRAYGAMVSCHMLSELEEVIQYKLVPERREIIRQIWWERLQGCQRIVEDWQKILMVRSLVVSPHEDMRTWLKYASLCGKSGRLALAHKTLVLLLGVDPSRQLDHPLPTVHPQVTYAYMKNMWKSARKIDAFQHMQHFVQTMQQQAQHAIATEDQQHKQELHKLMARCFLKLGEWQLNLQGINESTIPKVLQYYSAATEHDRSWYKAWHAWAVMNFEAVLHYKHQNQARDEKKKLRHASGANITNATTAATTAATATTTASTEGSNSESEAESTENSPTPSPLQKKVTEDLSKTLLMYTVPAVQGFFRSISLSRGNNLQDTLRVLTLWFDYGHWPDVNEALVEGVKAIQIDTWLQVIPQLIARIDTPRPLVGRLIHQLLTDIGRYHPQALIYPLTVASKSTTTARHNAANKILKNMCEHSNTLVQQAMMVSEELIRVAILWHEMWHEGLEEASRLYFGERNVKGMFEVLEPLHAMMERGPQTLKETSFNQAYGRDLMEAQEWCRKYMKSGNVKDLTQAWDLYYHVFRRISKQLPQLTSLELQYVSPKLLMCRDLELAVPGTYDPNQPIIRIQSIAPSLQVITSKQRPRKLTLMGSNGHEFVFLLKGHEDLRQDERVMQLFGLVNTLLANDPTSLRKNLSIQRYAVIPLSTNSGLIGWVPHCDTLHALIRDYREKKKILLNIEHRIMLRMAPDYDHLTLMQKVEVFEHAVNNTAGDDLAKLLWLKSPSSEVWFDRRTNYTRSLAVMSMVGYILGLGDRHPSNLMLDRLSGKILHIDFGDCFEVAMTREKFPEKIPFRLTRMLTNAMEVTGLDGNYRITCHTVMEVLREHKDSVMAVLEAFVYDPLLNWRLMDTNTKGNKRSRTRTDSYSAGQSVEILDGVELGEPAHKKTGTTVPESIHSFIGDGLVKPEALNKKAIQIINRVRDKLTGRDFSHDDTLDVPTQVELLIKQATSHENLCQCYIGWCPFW
PI3Kα (p110α/p85α), sequence (P42336 whole entry): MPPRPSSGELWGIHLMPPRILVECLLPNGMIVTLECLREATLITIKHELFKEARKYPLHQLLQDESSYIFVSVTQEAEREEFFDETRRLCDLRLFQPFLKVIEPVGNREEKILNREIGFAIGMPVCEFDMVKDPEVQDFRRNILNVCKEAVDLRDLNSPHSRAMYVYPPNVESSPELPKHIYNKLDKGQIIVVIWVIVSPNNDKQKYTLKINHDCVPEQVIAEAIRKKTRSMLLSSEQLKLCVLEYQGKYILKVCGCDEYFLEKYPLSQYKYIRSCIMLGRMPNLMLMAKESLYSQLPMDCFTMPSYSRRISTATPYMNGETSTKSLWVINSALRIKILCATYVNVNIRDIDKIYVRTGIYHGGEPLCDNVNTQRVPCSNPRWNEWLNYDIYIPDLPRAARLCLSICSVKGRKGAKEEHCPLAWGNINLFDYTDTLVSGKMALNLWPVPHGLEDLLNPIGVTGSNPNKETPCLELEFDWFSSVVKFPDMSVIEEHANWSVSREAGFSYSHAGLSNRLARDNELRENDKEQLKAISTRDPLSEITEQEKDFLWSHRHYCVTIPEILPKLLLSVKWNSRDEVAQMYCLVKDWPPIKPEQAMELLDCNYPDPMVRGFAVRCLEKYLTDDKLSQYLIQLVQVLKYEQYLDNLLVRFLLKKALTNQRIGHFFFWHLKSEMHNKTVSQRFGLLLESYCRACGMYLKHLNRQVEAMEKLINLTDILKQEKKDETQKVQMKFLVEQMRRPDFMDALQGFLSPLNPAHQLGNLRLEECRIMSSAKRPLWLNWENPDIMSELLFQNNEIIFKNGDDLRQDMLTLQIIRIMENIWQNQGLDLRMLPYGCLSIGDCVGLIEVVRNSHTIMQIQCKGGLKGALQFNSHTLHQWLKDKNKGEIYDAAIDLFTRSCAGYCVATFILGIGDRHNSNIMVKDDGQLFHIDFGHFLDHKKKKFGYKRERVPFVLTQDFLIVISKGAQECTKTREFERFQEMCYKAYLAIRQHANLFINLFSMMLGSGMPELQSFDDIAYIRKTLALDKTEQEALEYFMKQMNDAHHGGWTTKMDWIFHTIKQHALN
PI3Kα (p110α/p85α), sequence (P27986 whole entry partner): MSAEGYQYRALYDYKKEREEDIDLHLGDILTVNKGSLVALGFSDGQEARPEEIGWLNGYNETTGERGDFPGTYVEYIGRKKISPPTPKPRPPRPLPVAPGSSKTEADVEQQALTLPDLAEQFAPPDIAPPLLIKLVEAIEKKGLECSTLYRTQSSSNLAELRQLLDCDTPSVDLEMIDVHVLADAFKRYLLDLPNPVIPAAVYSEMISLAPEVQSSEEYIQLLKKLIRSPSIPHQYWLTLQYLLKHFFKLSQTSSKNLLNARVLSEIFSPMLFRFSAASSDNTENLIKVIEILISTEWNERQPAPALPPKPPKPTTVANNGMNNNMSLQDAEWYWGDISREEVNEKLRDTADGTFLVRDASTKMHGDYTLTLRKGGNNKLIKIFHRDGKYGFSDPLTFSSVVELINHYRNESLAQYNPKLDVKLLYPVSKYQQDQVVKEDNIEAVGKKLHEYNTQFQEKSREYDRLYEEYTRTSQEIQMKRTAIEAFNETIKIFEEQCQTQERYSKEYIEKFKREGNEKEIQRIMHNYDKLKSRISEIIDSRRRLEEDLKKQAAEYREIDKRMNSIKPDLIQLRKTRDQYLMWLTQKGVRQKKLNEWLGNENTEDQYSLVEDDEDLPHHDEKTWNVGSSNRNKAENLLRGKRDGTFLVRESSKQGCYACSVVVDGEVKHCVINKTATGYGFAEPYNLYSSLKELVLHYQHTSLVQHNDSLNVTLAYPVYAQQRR
Description for Akt-pS473 in U87MG cells: Model 3: Cellular Test of Phosphorylation of the Epitope S473 of the Akt Protein on the U87MG Line Via an ELISA Test
An electrochemiluminescence signal is generated by a ruthenium-labelled anti-rabbit antibody.
After culturing for 16-20 hours (the cells are at 100% of confluence) at 37° C. under 5% CO2, 1 μl of the chemical compounds in 100% DMSO (1% DMSO final concentration on the cells) is added. The cells are incubated with the compounds for 3 hours at 37° C. under 5% CO2.
The free sites are blocked with 150 μl/well of a buffer of 50 mM Tris pH 7.5, 0.15 M NaCl, 0.02% Tween 20, 3% BSA with stirring at 450 rpm for 1 hour at room temperature, followed by a step of washing with 3×300 μl of a buffer of 50 mM Tris pH 7.5, 0.15 M NaCl, 0.02% Tween 20.
15 μl of cell lysate are mixed with 15 μl of a 50 mM buffer of Tris pH 7.5, 0.15 M NaCl, 0.02% Tween 20, 1% BSA in a precoated ELISA plate (see above), and incubated for 1 hour at room temperature with stirring, followed by a step of washing with 3×300 μl of a buffer of 50 mM Tris pH 7.5, 0.15 M NaCl, 0.02% Tween 20. The pS473 epitope of Akt is detected with a rabbit polyclonal antibody (Cell Signaling, SC9271), diluted 100-fold in 50 mM Tris pH 7.5, 0.15 M NaCl, 0.02% Tween 20, 1% BSA, 25 μl/well (incubation for 1 hour at room temperature with stirring at 450 rpm).
After washing (see above), revelation is performed with a ruthenium-labelled anti-rabbit antibody (MSD R32AB1), diluted 3000-fold in a 50 mM buffer of Tris pH 7.5, 0.15 M NaCl, 0.02% Tween 20, 1% BSA, 25 μl/well, followed by incubation for 1 hour at room temperature with stirring at 450 rpm, and the plates are covered with aluminium.
After a further washing step, the plates are emptied and 150 μl of MSD Read Buffer T diluted fourfold with water are added. The electrochemiluminescence is measured on the MSD Sector Imager 6000.

Turning to `CCN1CC(C)(C)Oc2nc(N3CC4CCC(C3)O4)nc(-c3ccc(NC(=O)Nc4cc(C)nc(C)n4)c(F)c3)c2C1=O` [Example 90, 1-(2,6-Dimethylpyrimidin-4-yl)-3-{4-[6-ethyl-8,8-dimethyl-2-(8-oxa-3-azabicyclo[3.2.1]oct-3-yl)-5-oxo-5,6,7,8-tetrahydro-9-oxa-1,3,6-triazabenzocyclohepten-4-yl]-2-fluorophenyl}urea], the IC50 amounted to 2900 nM with U87MG tumour cells and 450 nM in assay [1]. The inhibition at 1 µM with Akt-pS473 in U87MG cells (read-out: U87 Akt-pS473 % Inhibition) stood at 64%.

Regarding `Cc1cc(NC(=O)Nc2ccc(-c3nc(N4CC5CCC(C4)O5)nc4c3C(=O)N(C)CC(C)(C)O4)cc2F)ccn1` [Example 60, 1-{2-Fluoro-4-[6,8,8-trimethyl-2-(8-oxa-3-azabicyclo[3.2.1]oct-3-yl)-5-oxo-5,6,7,8-tetrahydro-9-oxa-1,3,6-triazabenzocyclohepten-4-yl]phenyl}-3-(2-methylpyridin-4-yl)urea], the results for the IC50 (in the assay on U87MG tumour cells; in assay [1]; in the assay with Akt-pS473 in U87MG cells) were 46 nM, 58 nM and 17 nM, respectively.

As for `CCN1CC(C)(C)Oc2nc(N3CC4CCC(C3)O4)nc(-c3ccc(NC(=O)N[C@@H](C)CO)c(F)c3)c2C1=O` [Example 57, 1-{4-[6-Ethyl-8,8-dimethyl-2-(8-oxa-3-azabicyclo[3.2.1]oct-3-yl)-5-oxo-5,6,7,8-tetrahydro-9-oxa-1,3,6-triazabenzocyclohepten-4-yl]-2-fluorophenyl}-3-((S)-2-hydroxy-1-methylethyl)urea], the IC50 in the assay with U87MG tumour cells is 7580 nM; in the assay on Akt-pS473 in U87MG cells, above 1000 nM.

Regarding `CCN1CC(C)(C)Oc2nc(N3CC4CCC(C3)O4)nc(-c3ccc(NC(=O)Nc4ccnc(N5CCC(F)(F)CC5)c4)c(F)c3)c2C1=O` [Example 261, 1-(4,4-Difluoro-3,4,5,6-tetrahydro-2H-[1,2′]bipyridinyl-4′-yl)-3-{4-[6-ethyl-8,8-dimethyl-2-(8-oxa-3-azabicyclo[3.2.1]oct-3-yl)-5-oxo-5,6,7,8-tetrahydro-9-oxa-1,3,6-triazabenzocyclohepten-4-yl]-2-fluorophenyl}urea], the IC50 is 160 nM with U87MG tumour cells and 20 nM with Akt-pS473 in U87MG cells.

On to `CCN1CC(C)(C)Oc2nc(N3CC4CCC(C3)O4)nc(-c3ccc(NC(=O)Nc4cnccn4)cc3)c2C1=O` [Example 125, 1-{4-[6-Ethyl-8,8-dimethyl-2-(8-oxa-3-azabicyclo[3.2.1]oct-3-yl)-5-oxo-5,6,7,8-tetrahydro-9-oxa-1,3,6-triazabenzocyclohepten-4-yl]phenyl}-3-pyrazin-2-ylurea], for which the IC50 is 260 nM in the assay with U87MG tumour cells and 86 nM with Akt-pS473 in U87MG cells.

On to `CCN1CC(C)(C)Oc2nc(N3CC4CCC(C3)O4)nc(-c3ccc(NC(=O)O[C@@H](C)CO)c(F)c3)c2C1=O` [Example 61, {4-[6-Ethyl-8,8-dimethyl-2-(8-oxa-3-azabicyclo[3.2.1]oct-3-yl)-5-oxo-5,6,7,8-tetrahydro-9-oxa-1,3,6-triazabenzocyclohepten-4-yl]-2-fluorophenyl}carbamic acid (S)-2-hydroxy-1-methylethyl ester], for which the IC50 is 4670 nM in the assay with U87MG tumour cells, 993 nM in assay [1] and above 1000 nM with Akt-pS473 in U87MG cells.

As to `CCN1CC(C)(C)Oc2nc(N3CC4CCC(C3)O4)nc(-c3ccc(NC(=O)N[C@H](C)CO)c(F)c3)c2C1=O` [Example 27, 1-{4-[6-ethyl-8,8-dimethyl-2-(8-oxa-3-azabicyclo[3.2.1]oct-3-yl)-5-oxo-5,6,7,8-tetrahydro-9-oxa-1,3,6-triazabenzocyclohepten-4-yl]-2-fluorophenyl}-3-((R)-2-hydroxy-1-methylethyl)urea], the IC50 is 9150 nM in the assay with U87MG tumour cells, 394 nM in assay [1] and above 1000 nM with Akt-pS473 in U87MG cells.

As to `COCCN1CC(C)(C)Oc2nc(N3CC4CCC(C3)O4)nc(-c3ccc(NC(=O)Nc4cccc(OC(F)F)c4)c(F)c3)c2C1=O` [Example 220, 1-(3-Difluoromethoxyphenyl)-3-{2-fluoro-4-[6-(2-methoxyethyl)-8,8-dimethyl-2-(8-oxa-3-azabicyclo[3.2.1]oct-3-yl)-5-oxo-5,6,7,8-tetrahydro-9-oxa-1,3,6-triazabenzocyclohepten-4-yl]phenyl}urea], the IC50 came out at 285 nM in the assay with U87MG tumour cells, 348 nM in assay [1] and 30 nM in the assay with Akt-pS473 in U87MG cells.

With `CCNC(=O)Nc1ccc(-c2nc(N3CC4CCC(C3)O4)nc3c2C(=O)N(C[C@@H]2CCCN2C(=O)OCC)CC(C)(C)O3)cc1F` [Example 5, (S)-2-[4-[4-(3-ethylureido)-3-fluorophenyl]-8,8-dimethyl-2-(8-oxa-3-azabicyclo[3.2.1]oct-3-yl)-5-oxo-7,8-dihydro-5H-9-oxa-1,3,6-triazabenzocyclohepten-6-ylmethyl]pyrrolidine-1-carboxylic acid ethyl ester], the IC50 in the assay on U87MG tumour cells is above 10000 nM; in assay [1] it was 905 nM. Besides, the “PI3Ka IC50” value on PI3Kα (p110α/p85α) is listed as above 10000 nM.

Regarding `CCN1CC(C)(C)Oc2nc(N3CC4CCC(C3)O4)nc(-c3ccc(NC(=O)Nc4cccc(OC)n4)c(F)c3)c2C1=O` [Example 142, 1-{4-[6-Ethyl-8,8-dimethyl-2-(8-oxa-3-azabicyclo[3.2.1]oct-3-yl)-5-oxo-5,6,7,8-tetrahydro-9-oxa-1,3,6-triazabenzocyclohepten-4-yl]-2-fluorophenyl}-3-(6-methoxypyridin-2-yl)urea], the IC50 stood at 3100 nM with U87MG tumour cells and 495 nM in assay [1]. Further, at PI3Kα (p110α/p85α), the “PI3Ka IC50” value is above 10000 nM.

With `CCNC(=O)Nc1ccc(-c2nc(N3CC4CCC(C3)O4)nc3c2CN(CC)CC(C)(C)O3)cc1` [Example 113, 1-Ethyl-3-{4-[6-ethyl-8,8-dimethyl-2-(8-oxa-3-azabicyclo[3.2.1]oct-3-yl)-5,6,7,8-tetrahydro-9-oxa-1,3,6-triazabenzocyclohepten-4-yl]phenyl}urea], the IC50 in the assay on U87MG tumour cells is above 10000 nM; in assay [1], 3960 nM. The “PI3Ka IC50” value on PI3Kα (p110α/p85α) is above 10000 nM.

With `CCN1CC(C)(C)Oc2nc(N3CC4CCC(C3)O4)nc(-c3ccc(NC(=O)Nc4ccn(C)n4)cc3)c2C1=O` [Example 122, 1-{4-[6-Ethyl-8,8-dimethyl-2-(8-oxa-3-azabicyclo[3.2.1]oct-3-yl)-5-oxo-5,6,7,8-tetrahydro-9-oxa-1,3,6-triazabenzocyclohepten-4-yl]phenyl}-3-(1-methyl-1H-pyrazol-3-yl)urea], the IC50 is 340 nM in the assay on U87MG tumour cells and 140 nM with Akt-pS473 in U87MG cells.

On to `CCN1CC(C)(C)Oc2nc(N3CCOCC3)nc(-c3ccc(NC(=O)NOC)cc3)c2C1=O` [Example 104, 1-Methoxy-3-[4-(6-ethyl-8,8-dimethyl-2-morpholin-4-yl-5-oxo-5,6,7,8-tetrahydro-9-oxa-1,3,6-triazabenzocyclohepten-4-yl)phenyl]urea], for which the IC50 in the assay with U87MG tumour cells is above 10000 nM; in assay [1] it was 1490 nM. Besides, at PI3Kα (p110α/p85α), the “PI3Ka IC50” value is on record as 3750 nM.

On to `CCN1CC(C)(C)Oc2nc(N3CC4CCC(C3)O4)nc(-c3ccc(NC(=O)NCc4ccc(OC)nc4)c(F)c3)c2C1=O` [Example 145, 1-{4-[6-Ethyl-8,8-dimethyl-2-(8-oxa-3-azabicyclo[3.2.1]oct-3-yl)-5-oxo-5,6,7,8-tetrahydro-9-oxa-1,3,6-triazabenzocyclohepten-4-yl]-2-fluorophenyl}-3-(6-methoxypyridin-3-ylmethyl)urea], for which the IC50 was above 10000 nM in the assay on U87MG tumour cells and 2980 nM in assay [1]. Also, the “PI3Ka IC50” value at PI3Kα (p110α/p85α) was above 10000 nM.

With `CCN1CC(C)(C)Oc2nc(N3CC4CCC(C3)O4)nc(-c3ccc(NC(=O)Nc4ccnn4C)cc3)c2C1=O` [Example 115, 1-{4-[6-Ethyl-8,8-dimethyl-2-(8-oxa-3-azabicyclo[3.2.1]oct-3-yl)-5-oxo-5,6,7,8-tetrahydro-9-oxa-1,3,6-triazabenzocyclohepten-4-yl]phenyl}-3-(2-methyl-2H-pyrazol-3-yl)urea], the IC50 in the assay with U87MG tumour cells came out at 5000 nM; in assay [1] it was 147 nM. In addition, the “PI3Ka IC50” value on PI3Kα (p110α/p85α) was above 10000 nM.
